The values that follow come from paper PMC11676834, “Composition of Triterpene Glycosides of the Far Eastern Sea Cucumber Cucumaria conicospermium Levin et Stepanov; Structure Elucidation of Five Minor Conicospermiumosides A3-1, A3-2, A3-3, A7-1, and A7-2; Cytotoxicity of the Glycosides Against Human Breast Cancer Cell Lines; Structure–Activity …” (Marine Drugs, 2024).

Where a name gives a salt, the structure may show the parent alone. Read-outs that look alike come from different tables or passages of the source.

For one series, the system named is T-47D cells. In words: cells. Type of series: cell-based, human. The settings on record: MTT, 24 h, read-out: Cytotoxicity, IC50, T-47D. An excerpt:
(§1) Human erythrocytes were purchased from the Station of Blood Transfusion, Vladivostok. Human mammary epithelial cell line MCF-10A CRL-10317, human breast cancer cell lines T-47D HTB-133, MCF-7 HTB-22, and MDA-MB-231 CRM-HTB-26 were received from ATCC (Manassas, VA, USA). Culturing conditions: medium of RPMI-1640 with 1% penicillin/streptomycin (Biolot, St. Petersburg, Russia) and 10% fetal bovine serum (FBS) (Biolot, St. Petersburg, Russia) for the T-47D cell line; Minimum Essential Medium (MEM) with 1% penicillin/streptomycin sulfate (Biolot, St. Petersburg, Russia) and FBS (Biolot, St. Petersburg, Russia) to a final concentration of 10% for MCF-7 and MDA-MB-231 cells; DMEM/F12 medium with 10% FBS, 20 ng/mL EGF, […] hydrocortisone, 100 ng/mL cholera toxin, 10 μg/mL insulin, and 1% penicillin/streptomycin (BioinnLabs, Rostov-on-Don, Russia) for MCF-10A cell line.
(§2) The concentrations of tested glycosides were 0.1–50 µM; positive controls were cisplatin and okhotoside A1-1 (7). Methodology: to each well of 96-well plates, the cell suspension (180 µL) with solution (20 µL) of tested glycoside in a certain concentration was placed (MCF-10A, MCF-7, T-47D, and MDA-MB-231—7 × 10^3 cells per well) and incubated in the atmosphere with 5% CO2 at 37 °C for 24 h. Then, the solutions of tested compounds with medium were replaced by 100 µL of fresh medium, and 10 µL of 3-(4,5-dimethylthiazol-2-yl)-2,5-diphenyltetrazolium bromide (MTT) (PanReac, AppliChem, Darmstadt, Germany) stock solution (5 mg/mL) was added to each well and incubated for 4 h, followed by the addition of 100 µL of SDS-HCl solution (1 g SDS/10 mL d-H2O/17 µL 6 N HCl) and further incubated for 18 h. Multiskan FC microplate photometer (Thermo Fisher Scientific, Waltham, MA, USA) was used to measure the absorbance of the converted dye formazan at 570 nm. The concentration caused the 50% cell metabolic activity inhibition (IC50) expresses the cytotoxic activity of each glycoside. The experiments were conducted in triplicate, p ≤ 0.05.

For another series, the system named is MCF-7 cells. In words: cells. Type of series: cell-based, human. The settings on record: MTT, 24 h, read-out: Cytotoxicity, IC50, MCF-7.
Text: as §1, §2

Another series has as its system human erythrocytes. Put plainly: Hemolytic activity. The settings on record: Erythrocyte, 1 h at 37 °C, read-out: ED50, Erythrocytes (hemolytic activity). Type of series: cell-based. How it is done:
Human blood (B(III) Rh+) was used to obtain erythrocytes by centrifuging 450× g three times for 5 min with phosphate-buffered saline (PBS) (pH 7.4) at 4 °C on centrifuge LABOFUGE 400R (Heraeus, Hanau, Germany). Ice-cold PBS (pH 7.4) was used for resuspension of erythrocytes residue to a final optical density of 1.5 at 700 nm, which was kept on ice. Then, 10 µL of tested compound solution or control (okhotoside A1-1 (7)) were added to 90 µL of erythrocyte suspension in V-bottom 96-well plates and exposed for 1 h at 37 °C. Next, centrifugation at 900× g for 10 min on a laboratory centrifuge LMC-3000 (Biosan, Riga, Latvia), led to separation of layers, and 80 µL of supernatant was carefully decanted and transferred into new flat-plate for each. The values of erythrocyte lysis were measured on microplate photometer Multiskan FC (Thermo Fisher Scientific, Waltham, MA, USA) at λ = 570 nm as hemoglobin concentration in supernatant. The effective dose, causing lysis of 50% erythrocytes (ED50), was calculated with SigmaPlot 14.0 software. All the experiments were carried out in triple repetitions, p ≤ 0.05.

A further series has as its system MDA-MB-231 cells. Put plainly: cells. Type of series: cell-based, human. The settings on record: MTT, 24 h, read-out: Cytotoxicity, IC50, MDA-MB-231.
Text: as §1
as §2, with “Methodology: to each well of 96-well plates, the cell suspension (180 µL) with solution (20 µL) of tested glycoside in a certain concentration was placed (MCF-10A, MCF-7, T-47D, and MDA-MB-231—7 × 10^3 cells per well) and incubated in the atmosphere with 5% CO2 at 37 °C for 24 h.” left out

The nature of another series: in vitro. Type of series: cell-based, human. The settings on record: human, MTT, 24 h; read-out: Cytotoxicity, IC50, MCF-10A.
Text: as §1
as §2, with “Methodology: to each well of 96-well plates, the cell suspension (180 µL) with solution (20 µL) of tested glycoside in a certain concentration was placed (MCF-10A, MCF-7, T-47D, and MDA-MB-231—7 × 10^3 cells per well) and incubated in the atmosphere with 5% CO2 at 37 °C for 24 h.” left out

A further series relates to MCF-10A cells. In words: in vitro. Type of series: cell-based, human. The settings on record: MTT, 24 h; read-out: Cytotoxicity, IC50, MCF-10A.
Text: as §1
as §2, with “Methodology: to each well of 96-well plates, the cell suspension (180 µL) with solution (20 µL) of tested glycoside in a certain concentration was placed (MCF-10A, MCF-7, T-47D, and MDA-MB-231—7 × 10^3 cells per well) and incubated in the atmosphere with 5% CO2 at 37 °C for 24 h.” left out

For `CO[C@@H]1[C@@H](O)[C@H](O[C@@H]2[C@@H](O)[C@H](O[C@H]3[C@H](O)[C@@H](O[C@@H]4OC[C@@H](O)[C@H](O)[C@H]4O)[C@H](O[C@H]4[C@H](O[C@H]5CC[C@]6(C)C7CC[C@]8(C)[C@@H]([C@@](C)(O)[C@@H](CC=C(C)C)OC(C)=O)CC[C@@]8(C)C7=CC[C@H]6C5(C)C)OC[C@@H](OS(=O)(=O)O)[C@@H]4O)O[C@@H]3C)O[C@H](COS(=O)(=O)O)[C@H]2O)O[C@H](CO)[C@H]1O` (stereo partly drawn) [Conicospermiumoside A3-2 (2), 3β-O-{3-O-methyl-β-D-glucopyranosyl-(1→3)-6-O-sodium sulfate-β-D-glucopyranosyl-(1→4)-[(1→2)-β-D-xylopyranosyl]-β-D-quinovopyranosyl-(1→2)-4-O-sodium sulfate-β-D-xylopyranosyl}-20R-hydroxy,22R-acetoxylanosta-7,24-diene], the IC50 in the series on T-47D cells (Homo sapiens, T47D) is 38.9 ± 1.62 µM; in the series on MCF-7 cells (Homo sapiens, MCF7), > 50 µM; in the series on MDA-MB-231 cells (Homo sapiens, MDA-MB-231) it was 20.7 ± 2.28 µM; in the series “in vitro”, 36.8 ± 2.48 µM. In the series on human erythrocytes, the HC50 is 7560 ± 80 nM.
In the case of `CO[C@@H]1[C@@H](O)[C@H](O[C@@H]2[C@@H](O)[C@H](O[C@H]3[C@H](O)[C@@H](O[C@@H]4OC[C@@H](O)[C@H](O)[C@H]4O)[C@H](O[C@H]4[C@H](O[C@H]5CC[C@]6(C)C7CC[C@]8(C)[C@@H]([C@@](C)(O)[C@H](O)/C=C/C(C)(C)O)CC[C@@]8(C)C7=CC[C@H]6C5(C)C)OC[C@@H](OS(=O)(=O)O)[C@@H]4O)O[C@@H]3C)O[C@H](COS(=O)(=O)O)[C@H]2O)O[C@H](COS(=O)(=O)O)[C@H]1O` (stereo partly drawn) [Conicospermiumoside A7-2 (5), 3β-O-{6-O-sodium sulfate-3-O-methyl-β-D-glucopyranosyl-(1→3)-6-O-sodium sulfate-β-D-glucopyranosyl-(1→4)-[(1→2)-β-D-xylopyranosyl]-β-D-quinovopyranosyl-(1→2)-4-O-sodium sulfate-β-D-xylopyranosyl}-(20R,22R,25)-trihydroxylanosta-7,23-diene], the half-inhibitory concentration (IC50) in the series on T-47D cells (Homo sapiens, T47D) is > 50 µM; in the series with MCF-7 cells (Homo sapiens, MCF7) it was > 50 µM; with MDA-MB-231 cells (Homo sapiens, MDA-MB-231), 49.9 ± 1.45 µM; in “in vitro”, > 50 µM. In the series with human erythrocytes, the HC50 came out at 20400 ± 360 nM.
With `CO[C@@H]1[C@@H](O)[C@H](O[C@@H]2[C@@H](O)[C@H](O[C@H]3[C@H](O)[C@@H](O[C@@H]4OC[C@@H](O)[C@H](O)[C@H]4O)[C@H](O[C@H]4[C@H](O[C@H]5CC[C@]6(C)C7CC[C@]8(C)[C@@H]([C@@](C)(O)[C@H](O)CC=C(C)C)CC[C@@]8(C)C7=CC[C@H]6C5(C)C)OC[C@@H](OS(=O)(=O)O)[C@@H]4O)O[C@@H]3C)O[C@H](COS(=O)(=O)O)[C@H]2O)O[C@H](COS(=O)(=O)O)[C@H]1O` (stereo partly shown) [Frondoside A7-4 (14), frondoside A7-4], the IC50 in the series on T-47D cells (Homo sapiens, T47D) amounted to 44.5 ± 2.18 µM; in the series with MCF-7 cells (Homo sapiens, MCF7) it was 32.9 ± 2.13 µM; in the series on MDA-MB-231 cells (Homo sapiens, MDA-MB-231) it was 8.11 ± 0.74 µM; in the series “in vitro” it was 26.8 ± 0.94 µM. In addition, the HC50 in the series with human erythrocytes was 2160 ± 60 nM.
The matching figures for `CO[C@@H]1[C@@H](O)[C@H](O[C@@H]2[C@@H](O)[C@H](O[C@H]3[C@H](O)[C@@H](O[C@@H]4OC[C@@H](O)[C@H](O)[C@H]4O)[C@H](O[C@H]4[C@H](OC5CC[C@]6(C)[C@H]7CCC89C(=O)O[C@@](C)(CCCC(C)C)C8[C@@H](OC(C)=O)C[C@@]9(C)C7=CC[C@H]6C5(C)C)OC[C@@H](OS(=O)(=O)O)[C@@H]4O)O[C@@H]3C)OC[C@H]2O)O[C@H](CO)[C@H]1O` (stereo partly shown) [Frondoside A (10), frondoside A]: 9.76 ± 0.53 µM, 19.4 ± 0.48 µM, 2.79 ± 0.09 µM, 11 ± 1.04 µM and 1220 ± 60 nM.
For `COC1C(O)C(CO)OC(OC2C(O)COC(OC3C(C)OC(OC4C(OC5CCC6(C)C7CCC89C(=O)OC(C)(CC(=O)CC(C)C)C8C(OC(C)=O)CC9(C)C7=CCC6C5(C)C)OCC(OS(=O)(=O)O)C4O)C(O)C3O)C2O)C1O` (stereo not shown) [Okhotoside A1-1 (7), okhotoside A1-1], in that order: 6.23 ± 0.68 µM, 10.9 ± 0.96 µM, 2.25 ± 0.17 µM, 7.95 ± 0.44 µM and 420 ± 20 nM.
For `C=C(C)CCC[C@]1(C)OC(=O)C23CC[C@H]4C(=CC[C@H]5C(C)(C)C(O[C@@H]6OC[C@@H](OS(=O)(=O)O)[C@H](O)[C@H]6O[C@@H]6O[C@H](CO)[C@@H](O[C@@H]7O[C@H](COS(=O)(=O)O)[C@@H](O)[C@H](O[C@@H]8O[C@H](CO)[C@@H](O)[C@H](OC)[C@H]8O)[C@H]7O)[C@H](O)[C@H]6O[C@@H]6OC[C@@H](O)[C@H](O)[C@H]6O)CC[C@]45C)[C@]2(C)C[C@H](OC(C)=O)C31` (stereo partly shown) [Okhotoside B2 (9), okhotoside B2], in that order: 11.1 ± 1.15 µM, 39.8 ± 2.96 µM, 4.25 ± 0.38 µM, 10.7 ± 0.21 µM and 1360 ± 100 nM.
`N.N.[Cl][Pt][Cl]` [cisplatin, reference compound]: the IC50 with T-47D cells was > 160 µM; in the series with MCF-7 cells it was 113 ± 2.45 µM; in the series on MDA-MB-231 cells, ≥ 160 µM; in the series on MCF-10A cells, 74.3 ± 2.19 µM.
